According to US5686423A, “Di-and tri-peptide mimetic compounds for Parkinson's disease” (Department of Health, the Executive Yuan, Republic of China, priority 1996, dated 1997):
Residues, ends and D or L forms follow the SMILES beside them.

Columns and labels:
[1] = system: 6-hydroxydopamine-lesioned male Wistar rats; assay: Rotational behavior of nigrostriatal-lesioned rats elicited by (+)-methamphetamine; format: in vivo, rat; details: for rotation: control saline 552 ± 47
Description: Anti-Parkinsonism effect was determine by virtue of measuring the change in rotational behavior of 6-hydroxydopamine-lesioned male Wistar rats [Hudson J. L.; Levin. D. R.; Hoffer, B. J. A Sixteen-Channel Automated Rotometer System For Reliable Measurement of Turning Behavior in 6-Hydroxydopamine Lesioned and Transplanted Rats. Cell Transplantation 1993, 2, 507-514; Hudson J. L, Van Horne C. G.; Stromberg I.; Brock. S.; Clayton, J.; Masserano, J.; Hoffer, B. J.; Gerhardt, G. A. Correlation of Apomorphine and Amphetamine Induced Turning With Nigrostriatal Dopamine Content in Unilateral 6-Hydroxydopamine Lesioned Rats. Brain Res. 1993, 626, 167-174].
Twenty male Wistar rats weighing 150-175 grams were used. Within a 36 h window, all rats were lesioned by the same investigator using the following procedure. Surgical anesthesia was produced by i.p. injection of 30 mg/kg of sodium pentobarbtal. The animals were placed in a stereotaxic frame and the skin over the skull was incised and reflected. Bregma was used as the coordinate origin and a burr-hole was placed in the cranium over the injection site. After a small-needle puncture of the dura and lowering into the brain parenchyma, a solution of […] of 6-hydroxydopamine HCl was injected using a microliter syringe and a 26 gauge dome-tipped needle (AP-4.4 mm, ML 1.3 mm. DV -7.8 mm). The needle was removed after a 1 min delay and the wound was closed. Convalescence occurred in home cages with food and water ad libitum for the duration of the experiment.
On each testing day, the rats were placed into rotometer bowls and were allowed to acclimatize for 10 min. They then received a subcutaneous dose of (+)-methamphetamine (4 mg/kg in vehicle) and were allowed to move within the bowls for at least 60 min, or until they stopped turning. The rats were returned to the home cages after the experiment until next testing session.
The degree of dopamine depletion was evaluated by monthly testing of rotational behavior in a multichannel rotometer system after methamphetamine (4 mg/Kg, s.c.) injection.

[2] = cited from earlier work
[3] = 37° C., 2 minutes of incubation
Method: Mucosa suspension was prepared from the intestine of male Wistar rats according to the method of Hu et al. [Pharm. […] After abdominal incision the intestinal segment between the beginning of the jejunum and the end of the ileum was removed and everted to let the interior exposed. The mucosal layer was washed with normal saline and then scraped with glass microscope slides. The scraping was collected, diluted 1:9 (v/v) with ice cold isotonic sucrose solution, and ultrasonicated for 200 seconds. The suspension was centrifuged at 2500 rpm for 5 minutes. The supernatant suspension was stored in an ice bath before subjected to degradation study. All the stability studies were conducted right after the mucosa suspension was prepared. One hundred microliter of a methanolic solution of the test compound (1 mg/mL) was diluted with 2.4 mL of an isotonic mannitol buffer solution (pH=6.5) as the stock solution. One hundred microliter of the stock solution was mixed with equal volume of the mucosal suspension. The mixture was incubated in a 37° C. water bath and subjected to sampling at time intervals between zero to 60 minutes. Two hundred microliter of each sampled solution was denatured with MeOH (0.8 mL) and centrifuged at 14000 rpm for 5 minutes. Twenty to one hundred microliters each of the solution was subjected to HPLC assay on a Lichrospher 100 RP-18 column (E. Merck, 5 μm, 250×3.9 mm). […]

[4] = rat jejunal perfusion, perfusate 0.1 mM; for plasma conc. (mean ± s.e.m): blood drawn after 90 min perfusion
Method: The intestinal absorption of the prodrugs was then investigated by measuring the plasma concentration in rats upon in situ single-pass rat jejunal perfusion, and by determining the fraction of absorption in rabbits with data obtained from single-dose intra-artery injection and oral administration.
Perfusion solutions containing 5 mM KCl, 100 mM NaCl, 10 mM MES, 6 mM D-glucose, the testing compound, and 0.02% ascorbic acid as an anti-oxidant, were adjusted to pH 6 with NaOH. Osmolarity, measured by a Wescor 5500 vapor pressure osmometer (Wescor Company, Logan, Utah, U.S.A.), was adjusted to 300±10 mOsm/kg using sodium chloride. […] In order to prevent test compounds from oxidation, perfusion solutions were freshly prepared with nitrogen gas bubbled through for 10 min before each perfusion experiment.
Male Wistar Rats were fasted overnight (16-20 h) prior to anesthesia induced by i.m. injection of urethane (1.5 g/kg body weight). Following induction of anesthesia, rats were put on a heating pat to maintain body temperature. A midline longitudinal incision was made and a 5 to 10 cm jejunal segment was cannulated at the distal end to drain perfusates into collecting tubes. The entire surgical area was then covered with parafilm to minimize temperature reduction through evaporation. Tubing and syringes were covered with aluminum foil to retard the oxidation of testing compounds. Perfusion solution was pumped through the jejunal segment at a flow rate of 0.2 mL/min by a syringe pump (Stoelting, KD Scientific, U.S.A.). The jejunal segment was prewashed initially with drug-free buffer for 10 min and then pumped with test solution. Outlet tubing samples were collected every 10 min for 6 collection periods after water and solute transport reached steady-state. After 90 min perfusion, blood sample (1-2 mL) was drawn by cardiac puncture. The blood samples were centrifuged at 3000 rpm for 10 min, the plasma were separated and stored at -20° C. before analysis. The samples were filtered through 0.2 μm membrane filters before injecting into HPLC system.
Assays of L-dopa and test compounds were performed on HPLC consisting an autosampler (Model 717, Waters, Millipore, Milford, Mass., U.S.A.), a solvent delivery pump (Model 600E, Waters), a tunable absorbence detector (Model 484 or 486, Waters), and a PC 486 computer with a chromatography manager software (Millennium 2010, Millipore). L-Dopa from the perfusate was assayed on a Spheri 5RP-18 column (ABI, 5 μm, 250×4.6 mm) at flow rate of 1.0 mL/min with mobile phase comprising MeOH:0.05M NH4 H2 PO4 buffer (pH 4.6) containing 0.02M sodium 1-pentanesulfonate=10:90 (v/v). […] Standards were injected during each assay. Linearity of standard peak area ratios was validated. Numerical computation on data were performed on Statworks and are represented as mean±standard error of mean (s.e.m) for n experiments. Treatment differences were evaluated by t test.

[5] = Single dose oral and intra-artery bioavailability study in rabbits; details: oral vs intra-artery, 10 mg/Kg, six rabbits, mean ± s.e.m.
Method: Prodrug 1a was subjected to single dose oral and intra-artery (i.a.) administrations on 6 fasted New Zealand white rabbits for oral bioavailability study.
Single intra-artery dose of prodrug 1a or the parent drug was administered in six fasted New Zealand white rabbits, weighting 2.5-3.0 Kg, via ear artery. Blood samples were withdrawn with heparinized syringes from the contralateral artery at time intervals ranged from 1 min to 3.5 h. Freshly drawn heparinized blood was treated with extraction buffer (1 mol of Tris and 20 g of EDTA per liter, pH 8.6) and then extracted with alumina (100 g). The alumina was extracted with acidic buffer and the extract subjected to HPLC analysis.
After wash-out period, the same rabbits were used for single oral dose administration of prodrug la with a feeding tube. […] Prodrug 1a and dihydroxybenzylamine,used as an internal standard, were detected with electrochemical detector at 0.750 V of oxidation potential. The maximal plasma concentration (Cmax) and the time to the maximal plasma concentration (tmax) were determined. The area under the plasma concentration-time profile (AUC) and the terminal half-life (t1/2) were calculated. Fraction of absorption was calculated from the pharmacokinetic parameters (tmax, Cmax, AUC, t1/2) obtained from oral and intra-artery administrations.

pulmonary artery = details: continuous perfusion of 1 mg/mL for one min
Method: (§1) Each experiment was repeated at least three times. The mean responses before and after drug treatment were compared by means of Student's t test, with p<0.05, indicating significance. The contractile force of both pulmonary artery and vas deferences was elicited after continuous perfusion of dopamine (1 mg/mL) for one min.
(§2) Male guinea pigs (250-350 g) were stunned and bled. The vas deferences and pulmonary artery were isolated. A piece of the smooth muscle (about 1 mm wide and 7 mm long) was dissected. The isolated part was mounted vertically on an organ bath (1 mL capacity), kept at 35° C. and superfused with a physiological solution at a constant rate of about 2 mL /min (35° C.). The normal physiological solution had the following composition: NaCl (117 mM), KCl (5.9 mM), CaCl2 (2.4 mM), MgCl2 (1.2 mM), D-glucose (11.8 mM) and Tris 20 (pH 7.4 at 35° C.), aerated with 100% oxygen. Drugs tested were perfused for one min and then superfused with normal physiological solution or otherwise indicated. Tension was recorded isometrically by means of a Grass FT03 tranducer connected to a Grass model 7E polygraph or by a Gould UC2 transducer connected to a Gould 2200S recorder. Each experiment was repeated at least three times with different preparations.

vas deferences = details: continuous perfusion of 1 mg/mL for one min
Method: as §1, §2

[6] = i.p. 1-2 hours prior to (+)-methamphetamine

Compound: NC(Cc1ccc(O)c(O)c1)C(=O)O [L-dopa, 2-amino-3-(3,4-dihydroxyphenyl)propanoic acid]
- rotation ([1]; 4.2 mg/kg i.p., (+)-methamphetamine injected 1 h after treatment): 287 ± 86 turns/h
- AUCCSF /AUCplasma ([2]; Parkinson disease, literature (Olanow et al. 1991)): 12/100
- oral bioavailability ([2]; at up to 1000 mg/day): 33%

Compound: NCC(=O)N[C@@H](Cc1ccccc1)C(=O)O [L-glycine-L-phenylalanine] (H-Gly-Phe-OH)
- fraction degraded in rat intestinal mucosa suspension [3]: 81%

Compound: D-Phenylglycine-L-serine-L-dopa [2a]
- plasma conc. (mean ± s.e.m) [4]: 8.49 ± 1.36

Compound: D-p-hydroxyphenylglycine-L-serine-L-dopa [2b]
- plasma concentration, fold higher than that of L-dopa [4]: 60-100 fold
- plasma conc. (mean ± s.e.m) [4]: 62.1 ± 3.53

Compound: L-dopa-D-phenylglycine [1c]
- plasma concentration, fold higher than that of L-dopa [4]: 60-100 fold
- plasma conc. (mean ± s.e.m) [4]: 104.00 ± 12.98

Compound: D-phenylglycine-L-dopa [compound 1a]
- fraction of absorption [5]: 76 ± 24%
- plasma concentration, fold higher than that of L-dopa [4]: 60-100 fold
- plasma conc. (mean ± s.e.m) [4]: 64.65 ± 5.45

Compound: D-p-hydroxyphenylglycine-L-proline-L-dopa [compound 2d]
- rotation ([1]; 9.6 mg/kg i.p., (+)-methamphetamine injected 1 h after treatment): 223 ± 95 turns/h
- rotation ([1]; 9.6 mg/kg i.p., (+)-methamphetamine injected 2 h after treatment): 247 ± 67 turns/h
- anti-rotation activity compared with L-dopa (in words) [1, 6]: slightly higher than that of L-dopa
- effect on (+)-methamphetamine-induced rotation (in words) [1, 6]: significantly prohibited

Compound: NCCc1ccc(O)c(O)c1 [dopamine]
- contraction of pulmonary artery (resting tension) (pulmonary artery): elicited
- contraction of vas deferences (resting tension) (vas deferences): elicited

Compound: D-p-hydroxyphenylglycine-L-dopa [1b]
- plasma conc. (mean ± s.e.m) [4]: 0.60 ± 0.01
